US9012470B2 (Dart NeuroScience (Cayman) Ltd., priority 2010, dated 2015)
Where a name gives a salt, the structure may show the parent alone.

Columns and labels:
[1] = test system: benzodiazepine site of GABAA; assay: Binding assay, benzodiazepine site of GABAA (binding assay 1: rat brain, (3H)-flunitrazepam; binding assay 2: bovine hippocampal membranes, [3H]-RY80); conditions: radioligand binding; for % Inhibition at 0.1 μM: 0.1 μM test compound; for % Inhibition at 10 μM: 10 μM test compound
Experimental: The ability of a compound disclosed herein to act as ligand to the benzodiazepine site of GABAA can be determined using pharmacological models which are well known in the art using the following assay.
Binding assay 1: Whole brain (except cerebellum) of male Wistar derived rats weighing 175±25 g were used to prepare GABAA central benzodiazepine receptor in Na—K phosphate buffer pH 7.4. A 5 mg aliquot was incubated with 1 nM (^3H)-flunitrazepam for 60 minutes at 25° C. Experiments were performed in the presence or absence of 30 μM of GABA. Non-specific binding was estimated in the presence of 10 μM of diazepam. Membranes were filtered and washed, the filters were then counted to determine (^3H)-flunitrazepam specifically bound. Test compounds were tested in duplicate according to the required concentrations (Damm, H. W., et al. (1978) Res. Comm. Chem. Pathol. Pharmacol. 22: 597-560 incorporated herein in its entirety; Speth, R. C., et al. (1979) Life Sci. 24: 351-357 incorporated herein in its entirety).
Receptor Source: Bovine hippocampal membranes
Radioligand: [3H]-RY80 (40-80 Ci/mmol)
Final ligand concentration—[0.8 nM]
Non-specific Determinant: L-655,708—[0.5 μM]
Binding assay 2 followed procedures based on Li and Szabo (Li M., Szabo A., Rosenberg H. Evaluation of native GABAA receptors containing an α5 subunit. Eur. J. Pharmacol. 413: 63-72 (2001)). Incubation Conditions: Reactions are carried out in 50 mM Tris-Citrate (pH 7.8) containing 200 mM NaCl at 0-4° C. for 60 minutes. The reaction is terminated by rapid vacuum filtration onto glass fiber filters. Radioactivity trapped onto the filters is determined and compared to control values in order to ascertain any interactions of test compound with the benzodiazepine (central) binding site.

GABAA receptors = assay: Electrophysiology assay, two-electrode voltage clamp in Xenopus oocytes expressing GABAA receptors; format: cell-based; conditions: GABA EC10, screening concentration of 10 μM, subunit combination not stated
Experimental: mRNA was prepared from lyophilized plasmid pellets containing cDNA inserts encoding the specific GABAA receptor subunit. cDNAs encoding the α2, α3, and γ3 subunits were subcloned into pBluescript, SK^−. cDNAs encoding the α1 and α5 subunits were subcloned into prC while cDNA encoding the β2 subunit was subcloned into pcDNA1. The cDNA construct encoding the γ2s subunit is in the pGH19 expression construct. Overnight cultures of transformed DH5a bacterial cells were performed to grow sufficient quantities for maxiprep isolation of the plasmid cDNA. The resulting plasmid cDNA was linearized by digestion with an appropriate restriction enzyme that cleaves distal to the cDNA insert (XbaI for α1,2, β2, and γ3 or NotI for α3,5 and γ2, respectively). Following digestion, plasmid cDNA was treated with proteinase K and extracted with phenol/chloroform/isoamyl alcohol, followed by ethanol precipitation. cDNA quality was assessed by agarose-gel electrophoresis (1.5% agarose gel). Samples were stored at −20° C. until use. In vitro transcription was performed with T7 RNA polymerase. mRNA was then stored at −80° C. until use. Plasmids were linearized with appropriate restriction enzymes before in vitro transcription using the Message Machine kit (Ambion, Austin, Tex.).
GABAA Receptor Expression in Xenopus oocytes.
GABAA receptor expression in Xenopus oocytes: Following 45 min of 0.15% Tricaine anesthesia, an ovarian section containing the follicular oocytes was removed from the frog through a lateral abdominal incision. Oocytes were immediately placed in a calcium-free solution (NaCl 96 mM, MgCl2 1 mM, KCl 2 mM, Hepes 50 mM, pyruvate 2.5 mM, gentamycin 100 μg/mL, penicillin-streptomycin 50 U/mL, pH 7.4). Following 1.5-2 hour incubation in 0.2% collagenase (type II, Sigma Chemical Co., St. Louis, Mo.) at room temperature, individual Dumont stage V and VI oocytes were transferred to an incubator and maintained overnight in Barth's solution (NaCl 84 mM, NaHCO3 2.4 mM, MgSO4 0.82 mM, KCl 1 mM, Ca(NO3)2 0.33 mM, CaCl2 0.41 mM, Tris/HCl 7.5 mM, pyruvate 2.5 mM, gentamycin 50 μg/mL, penicillin-streptomycin, 100 units/mL, pH 7.4) at 18-20° C. and used for experiments 1-5 days post-injection. Oocytes were injected solution using an electronic microinjector (Drummond, Broomall, Pa.) with 50 nL of RNA containing 0.3-0.5 ng of each subunit RNA in a 1:1:1 ratio. The injected oocytes were used for experiments after 1-5 days of incubation in Barth's solution at 18-20° C.
Measurements of ion currents from oocytes expressing GABAA receptors were performed using a Warner two-electrode voltage-clamp amplifier (Warner Instruments, Inc., Foster City, Calif.) (Park-Chung, M., et al. (1999) Brain Res. 830: 72-87 incorporated herein in its entirety). Microelectrodes were fabricated from borosilicate glass capillaries with a programmed pipette puller (Sutter Instrument Co., Calif.). Microelectrode resistance was 1-3 MΩ when filled with 3 M KCl. The oocyte recording chamber was continuously perfused with Ringer solution. Oocytes were clamped at a holding potential of −70 mV during data acquisition. The membrane current was filtered at 10 Hz and sampled at 100 Hz. Compounds were applied by a gravity-driven external perfusion system. The working volume of the recording chamber was 30 μL and the rate of the perfusion was approximately 50 μL/sec. Compound application was 10-20 sec followed by a 90 sec wash. Data acquisition and external perfusion was computer controlled by custom-developed software. All experiments were performed at room temperature (22-24° C.). Dose-response data from each oocyte were fitted to the Hill equation by non-linear regression using the equation: IGABA=Emax/(1+(EC50/c)^n^H)
Emax is the maximum response, EC50 is the concentration producing 50% of the maximal response, nH is the Hill coefficient and c is the concentration of agonist. […]

CCCCNC(=O)n1cc2[nH]cc3c(=O)n(-c4ccccc4)nc-3c2c1 [Compound 13i, N-Butyl-3-oxo-2-phenyl-2,3-dihydropyrazolo[3,4-d]pyrrolo[3,4-b]pyridine-7(5H)-carboxamide]
% Inhibition at 0.1 μM [1]: A (A indicates % inhibition >80%)
% Inhibition at 10 μM [1]: A (A indicates % inhibition >80%)
EP Modulation (GABAA receptors): E (E indicates negative modulation <20%)

O=C(NC1CC1)n1ncc2c3nn(-c4ccccc4)c(=O)c-3c[nH]c21 [Compound 6j, N-cyclopropyl-3-oxo-2-phenyl-2,3-dihydrodipyrazolo[3,4-b:3′,4′-d]pyridine-6(5H)-carboxamide]
% Inhibition at 0.1 μM [1]: C (C indicates % inhibition <20%)
% Inhibition at 10 μM [1]: A (A indicates % inhibition >80%)
EP Modulation (GABAA receptors): E (E indicates negative modulation <20%)

CCNC(=O)n1ncc2c3nn(-c4ccc(Br)cc4)c(=O)c-3c[nH]c21 [Compound 6w, 2-(4-bromophenyl)-N-ethyl-3-oxo-2,3-dihydrodipyrazolo[3,4-b:3′,4′-d]pyridine-6(5H)-carboxamide.TFA]
% Inhibition at 10 μM [1]: A (A indicates % inhibition >80%)
EP Modulation (GABAA receptors): E (E indicates negative modulation <20%)

CCCCNC(=O)n1ncc2c3nn(-c4ccccc4)c(=O)c-3c[nH]c21 [Compound 6f, N-butyl-3-oxo-2-phenyl-2,3-dihydrodipyrazolo[3,4-b:3′,4′-d]pyridine-6(5H)-carboxamide.TFA]
% Inhibition at 10 μM [1]: A (A indicates % inhibition >80%)
EP Modulation (GABAA receptors): D (D indicates negative modulation >20%)

CC(C)NC(=O)n1cc2[nH]cc3c(=O)n(-c4ccccc4)nc-3c2c1 [Compound 13j, N-Isopropyl-3-oxo-2-phenyl-2,3-dihydropyrazolo[3,4-d]pyrrolo[3,4-b]pyridine-7(5H)-carboxamide]
% Inhibition at 0.1 μM [1]: B (B indicates % inhibition <80% and >20%)
% Inhibition at 10 μM [1]: A (A indicates % inhibition >80%)

CC(C)NC(=O)n1ncc2c3nn(-c4ccc(C(C)C)cc4)c(=O)c-3c[nH]c21 [Compound 6aa, N-isopropyl-2-(4-isopropylphenyl)-3-oxo-2,3-dihydrodipyrazolo[3,4-b:3′,4′-d]pyridine-6(5H)-carboxamide]
% Inhibition at 10 μM [1]: B (B indicates % inhibition <80% and >20%)

CC(C)NC(=O)n1ncc2c3nn(-c4ccsc4)c(=O)c-3c[nH]c21 [Compound 6v, N-isopropyl-3-oxo-2-(thiophen-3-yl)-2,3-dihydrodipyrazolo[3,4-b:3′,4′-d]pyridine-6(5H)-carboxamide]
% Inhibition at 10 μM [1]: B (B indicates % inhibition <80% and >20%)

CCCCNC(=O)n1ncc2c3nn(-c4ccccc4F)c(=O)c-3c[nH]c21 [Compound 6al, N-butyl-2-(2-fluorophenyl)-3-oxo-2,3-dihydrodipyrazolo[3,4-b:3′,4′-d]pyridine-6(5H)-carboxamide]
% Inhibition at 0.1 μM [1]: C (C indicates % inhibition <20%)
% Inhibition at 10 μM [1]: A (A indicates % inhibition >80%)

CC(C)NC(=O)n1ncc2c3nn(-c4ccc(C(F)(F)F)cc4)c(=O)c-3c[nH]c21 [Compound 6af, N-isopropyl-3-oxo-2-(4-(trifluoromethyl)phenyl)-2,3-dihydrodipyrazolo[3,4-b:3′,4′-d]pyridine-6(5H)-carboxamide]
% Inhibition at 10 μM [1]: B (B indicates % inhibition <80% and >20%)

CCNC(=O)n1ccc2c3nn(-c4ccc(Cl)cn4)c(=O)c-3c[nH]c21 [Compound 17f, 2-(5-Chloropyridin-2-yl)-N-ethyl-3-oxo-2,3-dihydropyrazolo[3,4-d]pyrrolo[2,3-b]pyridine-6(5H)-carboxamide]
% Inhibition at 10 μM [1]: B (B indicates % inhibition <80% and >20%)

CNC(=O)n1ncc2c3nn(-c4ccc(C(F)(F)F)cc4)c(=O)c-3c[nH]c21 [Compound 6ag, N-methyl-3-oxo-2-(4-(trifluoromethyl)phenyl)-2,3-dihydrodipyrazolo[3,4-b:3′,4′-d]pyridine-6(5H)-carboxamide]
% Inhibition at 10 μM [1]: B (B indicates % inhibition <80% and >20%)

CC(C)CNC(=O)n1ncc2c3nn(-c4ccc(F)cc4F)c(=O)c-3c[nH]c21 [Compound 6aq, 2-(2,4-difluorophenyl)-N-isobutyl-3-oxo-2,3-dihydrodipyrazolo[3,4-b:3′,4′-d]pyridine-6(5H)-carboxamide]
% Inhibition at 0.1 μM [1]: C (C indicates % inhibition <20%)
% Inhibition at 10 μM [1]: B (B indicates % inhibition <80% and >20%)

CCNC(=S)n1ccc2c3nn(-c4ccccc4)c(=O)c-3c[nH]c21 [Compound 17e, N-ethyl-3-oxo-2-phenyl-2,3-dihydropyrazolo[3,4-d]pyrrolo[2,3-b]pyridine-6(5H)-carbothioamide]
% Inhibition at 10 μM [1]: B (B indicates % inhibition <80% and >20%)

CCCCNC(=O)n1ncc2c3nn(-c4ccc(F)cc4F)c(=O)c-3c[nH]c21 [Compound 6an, N-butyl-2-(2,4-difluorophenyl)-3-oxo-2,3-dihydrodipyrazolo[3,4-b:3′,4′-d]pyridine-6(5H)-carboxamide]
% Inhibition at 0.1 μM [1]: B (B indicates % inhibition <80% and >20%)
% Inhibition at 10 μM [1]: A (A indicates % inhibition >80%)

CCNC(=O)n1ncc2c3nn(-c4ccc(Cl)c(C(F)(F)F)c4)c(=O)c-3c[nH]c21 [Compound 6s, 2-(4-chloro-3-(trifluoromethyl)phenyl)-N-ethyl-3-oxo-2,3-dihydrodipyrazolo[3,4-b:3′,4′-d]pyridine-6(5H)-carboxamide]
% Inhibition at 10 μM [1]: B (B indicates % inhibition <80% and >20%)

CNC(=O)n1ccc2c3nn(-c4ccccc4)c(=O)c-3c[nH]c21 [Compound 17a, N-Methyl-3-oxo-2-phenyl-2,3-dihydropyrazolo[3,4-d]pyrrolo[2,3-b]pyridine-6(5H)-carboxamide]
% Inhibition at 0.1 μM [1]: C (C indicates % inhibition <20%)
% Inhibition at 10 μM [1]: C (C indicates % inhibition <20%)

CC(C)CNC(=O)n1ncc2c3nn(-c4ccccc4)c(=O)c-3c[nH]c21 [Compound 6e, N-isobutyl-3-oxo-2-phenyl-2,3-dihydrodipyrazolo[3,4-b:3′,4′-d]pyridine-6(5H)-carboxamide]
% Inhibition at 0.1 μM [1]: C (C indicates % inhibition <20%)
% Inhibition at 10 μM [1]: A (A indicates % inhibition >80%)

CCNC(=S)n1ncc2c3nn(-c4ccc(Br)cc4)c(=O)c-3c[nH]c21 [Compound 6at, 2-(4-bromophenyl)-N-ethyl-3-oxo-2,3-dihydrodipyrazolo[3,4-b:3′,4′-d]pyridine-6(5H)-carbothioamide]
% Inhibition at 0.1 μM [1]: A (A indicates % inhibition >80%)
% Inhibition at 10 μM [1]: A (A indicates % inhibition >80%)
